Experimental data: US8124598B2 (priority 2006, dated 2012)

Tests used:
[1] = test system: male and female patients with PTSD, panic disorder, anxiety, depression; experiment: Sixteen case reports: oral 7-keto DHEA in PTSD, panic disorder, anxiety, depression and other conditions (Example 2); type: in vivo, human
Protocol: In all the patient reports that follow, 7-keto DHEA was administered orally.

[2] = test system: trauma victims with PTSD or depression; experiment: Trauma victims with PTSD or depression, 7-keto DHEA vs placebo (Example 5); type: in vivo, human; conditions: 75 mg/day by mouth for 1 to 6 months
[3] = test system: midlife major and minor depression or dysthymia; conditions: case reports; cited from earlier work
trauma victims [4] = experiment: Trauma victims with or without PTSD or depression, stress-related physiologic measures (Example 6); type: in vivo, human; conditions: 25-75 mg/day by mouth for 1 to 6 months
[5] = test system: patients with treatment-resistant PTSD, panic disorder, anxiety, depression and other conditions; experiment: Eight case reports: 7-keto DHEA in treatment-resistant patients (Example 3); type: in vivo, human
[6] = test system: women with severe chronic PTSD; experiment: Five case reports: 7-keto DHEA in women with treatment-resistant PTSD (Example 1); type: in vivo, human
Text: The following case reports are of 5 women with severe chronic PTSD resulting from severe early abuse who continued to be highly symptomatic despite receiving extensive psychotherapy and years of psychopharmacologic treatment. […] The improvements in these symptoms not only were subjective and objective, but also manifested in significant and rapid benefits in vocational and interpersonal functioning.
Ms. […] A. was so fearful and avoidant they would miss many sessions. They were so fragile and frightened they would frequently dissociate during sessions and forget what had been discussed. […] After the first week of 7-keto DHEA therapy, Ms. […] They reported feeling “more organized, more present” and being able to enjoy socializing “with a significant lessening of constant fear and self-criticism.”
The outcome of this case series offers evidence that 7-keto DHEA is beneficial in treating patients with histories of severe early trauma and persistent refractory PTSD.

trauma victims [7] = experiment: Trauma victims after a terrorist attack, 7-keto DHEA vs placebo (Example 4); type: in vivo, human; conditions: 50 or 75 mg/day by mouth for 2 to 6 weeks immediately following the incident
healthy male volunteers = conditions: cited from earlier work

Q: What does the source list for CC(=O)OC1CC[C@@]2(C)C(=CC(=O)[C@@H]3[C@@H]2CC[C@]2(C)C(=O)CC[C@@H]32)C1 (some centres unmarked) [7-keto DHEA, 3-acetyl-7-oxo-dehydroepiandrosterone]?
A: clinical response ([1]; Patient 1, PTSD and Generalized Anxiety Disorder, 25 mg/day oral): less anxiety within 2 days; clinical response ([1]; Patient 2, PTSD, chronic anxiety, Major depression, 50 mg/day oral): less anxiety and depression; clinical response ([1]; Patient 3, Panic Disorder and Generalized Anxiety Disorder, 25 mg/day oral): less anxiety and panic; clinical response ([1]; Patient 4, PTSD, Generalized Anxiety Disorder, Bipolar Depression, 25 mg/day oral): less anxious and depressed; clinical response ([1]; Patient 5, Bipolar Depression and PTSD, 25 mg/day oral): less anxious and depressed; clinical response ([1]; Patient 6, Tourette's Syndrome, chronic dysthymia, anxiety, 50 mg/day oral): calmer and in a better mood; clinical response ([1]; Patient 7, Ankylosing Spondylitis, chronic pain, depression, 25 mg/day oral): calmer and less depressed; clinical response ([1]; Patient 8, Dissociative Disorder, PTSD, Major Depression, Dependent Personality Disorder, 25 mg/day oral): less anxiety and dissociation; clinical response ([1]; Patient 9, PTSD, Generalized Anxiety Disorder, Major Depression, 25 to 50 mg/day oral): less anxious and depressed; clinical response ([1]; Patient 10, Bipolar Depression and PTSD, 25 mg/day oral): less anxious and depressed; clinical response ([1]; Patient 11, Bipolar Depression and PTSD, 25 mg/day oral): less anxious; clinical response ([1]; Patient 12, Bipolar Depression and PTSD, 25 mg/day oral): less anxious; clinical response ([1]; Patient 13, PTSD and Major Depression, 50 mg/day oral): less depressed and anxious; clinical response ([1]; Patient 14, Adult ADHD, Bereavement, PTSD, 25 mg/day oral): less irritable and anxious; clinical response ([1]; Patient 15, Generalized Anxiety Disorder, 25 mg/day oral): lower anxiety and better mood; clinical response ([1]; Patient 16, Generalized Anxiety Disorder and Fibromyalgia, 25 mg/day oral): lower anxiety and irritability; PTSD, depression and stress-related emotional conditions compared to placebo [2]: reduction in their PTSD depression and stress-related emotional conditions; induced mania [3]: no case reports of induced mania; stress-related physiologic measures (pain, headaches, hypertension, alcohol and substance abuse, work days lost to illness, cardiac events) compared to placebo (trauma victims [4]; patients with PTSD or depression): reduction in one or more stress-related physiologic measures; stress-related physiologic measures (pain, headaches, hypertension, alcohol and substance abuse, work days lost to illness, cardiac events) compared to placebo (trauma victims [4]; patients without PTSD or depression): reduction in one or more stress-related physiologic measures; time the patient remained well ([5]; Example 3 patient 7, 200 mg/day): 9 months; time the patient remained well ([5]; Example 3 patients 3 and 6 on 7-keto DHEA (50; 100 mg/day)): about 1 year; clinical response ([5]; Patient 1, lifelong depression, PMDD, sexual PTSD, 75 mg/day): improved; clinical response ([5]; Patient 2, lifelong anxiety, 4 years of depression, 50 mg/day): very effective; clinical response ([5]; Patient 3, GAD, panic disorder, fibromyalgia/CFS, 50 mg/day): improvement in their symptoms; clinical response ([5]; Patient 4, severe dissociative identity disorder, fibromyalgia, Bipolar Disorder, 200 mg/day): has been well for a year and is able to read and function; clinical response ([5]; Patient 5, PTSD and bipolar 2 disorder, 50 mg/day in summer, 100 mg/day in winter): very effective; clinical response ([5]; Patient 6, failed most antidepressants, atypical antipsychotics and ECT, 100 mg/day): tremendous positive effects in 1 week; clinical response after partial relapse ([5]; Patient 6, dosage increased from 100 mg/day to 300 mg/day after stressful episode (breast cancer)): good results; clinical response ([5]; Patient 7, lifelong depression, sexual PTSD, fibromyalgia/CFS, 200 mg/day): significant benefit; clinical response ([6]; Case 1 (PTSD, bipolar II, dissociative identity disorder), 25 mg/day, after the first week, adjunct): stopped feeling so fearful, stopped dissociating, was much more communicative, and related better; libido ([6]; Case 1, 50 mg/day): went from having no libido to some libido; clinical response ([6]; Case 1, after 3 weeks on 50 mg/day): stopped having nightmares, had much better concentration, functioned better at work and in social situations, had more stable mood; clinical response ([6]; Case 1, dosage increased to 50 mg daily): even further improvement; clinical response ([6]; Case 2 (PTSD, bipolar disorder NOS), 25 mg daily, within a few days, adjunct): feeling much better; vocational functioning ([6]; Case 2, 25 mg daily, within 2 weeks): felt calm and centered enough to return to work; clinical response ([6]; Case 3 (PTSD, major depressive disorder), 25 mg daily, after 4 days, adjunct): felt better and was no longer getting anxious and overwhelmed by stressful events; nightmares and flashbacks ([6]; Case 3, 25 mg daily, seven days after start): fewer nightmares and flashbacks; clinical response ([6]; Case 4 (PTSD with dissociative identity disorder), 50 mg for 6 weeks, adjunct): some improvement in daily functioning and more positive affect; clinical response ([6]; Case 4, 100 mg for 6 weeks): became much more social; clinical response ([6]; Case 4, 150 mg daily): continued to improve; clinical response ([6]; Case 5 (anxiety, PTSD, dissociative identity disorder, panic attacks), 25 mg daily raised to 50 and 75 mg daily, single agent): feeling calmer and being better able to deal with the stress; reduction in trauma and affective symptoms ([6]; all 5 treatment-resistant women, after starting 7-keto DHEA): rapid and substantial reduction in their trauma and affective symptoms; negative side effects ([6]; the 5 patients on 7-keto DHEA): None of the 5 patients on 7-keto DHEA treatment reported any negative side effects; PTSD, depression and stress-related emotional conditions compared to placebo (trauma victims [7]): reduction in PTSD, depression and stress-related emotional conditions; differences in clinical laboratory values, minor adverse experiences, vital signs, blood chemistry, urinalysis between treatment and placebo groups (healthy male volunteers; healthy male volunteers): no differences; side effects or changes in clinical laboratory values (healthy male volunteers; study by Davidson et al.): no side effects or changes in clinical laboratory values
